Test results as given in patent publication US6737383B1, “Herbicidal oxadiazolidines” (priority 1999, dated 2004).

How the values were obtained:
velvetleaf = assay: Test B pre/postemergence velvetleaf; format: in vivo, Abutilon theophrasti
Summary of the method: (§1)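 Response is a visual 0-to-10 score relative to untreated plants, where 0 means no effect and 10 means complete control, taken twelve to sixteen days after application. Treatments went onto soil at planting and onto foliage of 1- to 4-leaf plants, using a surfactant-containing non-phytotoxic solvent.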

duck salad = assay: Test B flood test duck salad; format: in vivo, Heteranthera limosa
Summary of the method: (§2)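 Each value is a visual injury score relative to controls, with 10 meaning complete control and 0 no effect. Evaluation took place twelve to sixteen days after the 2-leaf-stage plants were treated and kept in the greenhouse.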

crabgrass = assay: Test B pre/postemergence crabgrass; format: in vivo, Digitaria sanguinalis
Summary of the method: as §1

smallflower flatsedge = assay: Test B flood test smallflower flatsedge; format: in vivo, Cyperus difformis
Summary of the method: as §2

blackgrass = assay: Test B pre/postemergence blackgrass; format: in vivo, Alopecurus myosuroides
Summary of the method: as §1

wild oat = assay: Test B pre/postemergence wild oat; format: in vivo, Avena fatua
Summary of the method: as §1

sugar beet = assay: Test B pre/postemergence sugar beet; format: in vivo, Beta vulgaris
Summary of the method: as §1

soybean = assay: Test B pre/postemergence soybean; format: in vivo, Glycine max
Summary of the method: as §1

purple nutsedge = assay: Test B pre/postemergence purple nutsedge; format: in vivo, Cyperus rotundus
Summary of the method: as §1

bedstraw = assay: Test B pre/postemergence bedstraw; format: in vivo, Galium aparine
Summary of the method: as §1

surinam grass = assay: Test B pre/postemergence surinam grass; format: in vivo, Brachiaria decumbens
Summary of the method: as §1

rice = assay: Test B flood test rice; format: in vivo, Oryza sativa
Summary of the method: as §2

corn = assay: Test B pre/postemergence corn; format: in vivo, Zea mays
Summary of the method: as §1

rape = assay: Test B pre/postemergence rape; format: in vivo, Brassica napus
Summary of the method: as §1

pigweed = assay: Test B pre/postemergence pigweed; format: in vivo, Amaranthus retroflexus
Summary of the method: as §1

wheat = assay: Test B pre/postemergence wheat; format: in vivo, Triticum aestivum
Summary of the method: as §1

[1] = Postemergence, Rate 125 g/ha, scale of 0 to 10 where 0 is no effect and 10 is complete control
[2] = Preemergence, Rate 62 g/ha, scale 0 to 10 (0 no effect, 10 complete control)
[3] = Preemergence, Rate 125 g/ha, 0 is no effect, 10 is complete control
[4] = Preemergence, Rate 250 g/ha, scale 0 to 10, 0 is no effect, 10 is complete control
[5] = Preemergence, Rate 500 g/ha, scale 0 to 10 (0 no effect, 10 complete control)
[6] = Rate 62 g/ha, Postemergence, scale of 0 to 10 where 0 is no effect and 10 is complete control
[7] = Rate 250 g/ha, Postemergence, scale 0 to 10, 0 is no effect, 10 is complete control
[8] = Rate 500 g/ha, Postemergence, scale 0 to 10
[9] = Postemergence (flood test species), Rate 125 g/ha, scale of 0 to 10 where 0 is no effect and 10 is complete control
[10] = Rate 250 g/ha, Postemergence (flood test), scale 0 to 10, 0 is no effect, 10 is complete control
[11] = Rate 500 g/ha, listed under Postemergence (flood test species), scale 0 to 10

CCOC(=O)Cn1c(=O)on(C(=O)N(c2ccc(F)cc2)C(C)C)c1=O [Compound 128]
2: Blackgrass plant response rating (blackgrass; [5])
0: Velvetleaf plant response rating (velvetleaf; [1]) | Velvetleaf plant response rating (velvetleaf; [2]) | Velvetleaf plant response rating (0 to 10 scale) (velvetleaf; [3]) | Velvetleaf plant response rating (velvetleaf; [4]) | Velvetleaf plant response rating (velvetleaf; [5]) | Velvetleaf plant response rating (velvetleaf; [6]) | Plant response rating, Velvetleaf (velvetleaf; [7]) | Velvetleaf plant response rating (velvetleaf; [8]) | Ducksalad plant response rating (duck salad; [9]) | Plant response rating, Ducksalad (duck salad; [10]) | Ducksalad plant response rating (duck salad; [11]) | Crabgrass plant response rating (crabgrass; [1]) | Crabgrass plant response rating (crabgrass; [2]) | Crabgrass plant response rating (0 to 10 scale) (crabgrass; [3]) | Crabgrass plant response rating (crabgrass; [4]) | Crabgrass plant response rating (crabgrass; [5]) | Crabgrass plant response rating (crabgrass; [6]) | Plant response rating, Crabgrass (crabgrass; [7]) | Crabgrass plant response rating (crabgrass; [8]) | S. Flatsedge plant response rating (smallflower flatsedge; [9]) | Plant response rating, S. Flatsedge (smallflower flatsedge; [10]) | S. Flatsedge plant response rating (smallflower flatsedge; [11]) | Blackgrass plant response rating (blackgrass; [1]) | Blackgrass plant response rating (blackgrass; [2]) | Blackgrass plant response rating (0 to 10 scale) (blackgrass; [3]) | Blackgrass plant response rating (blackgrass; [4]) | Blackgrass plant response rating (blackgrass; [6]) | Plant response rating, Blackgrass (blackgrass; [7]) | Blackgrass plant response rating (blackgrass; [8]) | Wild oats plant response rating (wild oat; [1]) | Wild oats plant response rating (wild oat; [2]) | Wild oats plant response rating (0 to 10 scale) (wild oat; [3]) | Wild oats plant response rating (wild oat; [4]) | Wild oats plant response rating (wild oat; [5]) | Wild oats plant response rating (wild oat; [6]) | Plant response rating, Wild oats (wild oat; [7]) | Wild oats plant response rating (wild oat; [8]) | Sugarbeets plant response rating (sugar beet; [1]) | Sugarbeets plant response rating (sugar beet; [2]) | Sugarbeets plant response rating (0 to 10 scale) (sugar beet; [3]) | Sugarbeets plant response rating (sugar beet; [4]) | Sugarbeets plant response rating (sugar beet; [5]) | Sugarbeets plant response rating (sugar beet; [6]) | Plant response rating, Sugarbeets (sugar beet; [7]) | Sugarbeets plant response rating (sugar beet; [8]) | Soybean plant response rating (soybean; [1]) | Soybean plant response rating (soybean; [2]) | Soybean plant response rating (0 to 10 scale) (soybean; [3]) | Soybean plant response rating (soybean; [4]) | Soybean plant response rating (soybean; [5]) | Soybean plant response rating (soybean; [6]) | Plant response rating, Soybean (soybean; [7]) | Soybean plant response rating (soybean; [8]) | Nutsedge plant response rating (purple nutsedge; [1]) | Nutsedge plant response rating (purple nutsedge; [2]) | Nutsedge plant response rating (0 to 10 scale) (purple nutsedge; [3]) | Nutsedge plant response rating (purple nutsedge; [4]) | Nutsedge plant response rating (purple nutsedge; [5]) | Nutsedge plant response rating (purple nutsedge; [6]) | Plant response rating, Nutsedge (purple nutsedge; [7]) | Nutsedge plant response rating (purple nutsedge; [8]) | Bedstraw plant response rating (bedstraw; [1]) | Bedstraw plant response rating (bedstraw; [2]) | Bedstraw plant response rating (0 to 10 scale) (bedstraw; [3]) | Bedstraw plant response rating (bedstraw; [4]) | Bedstraw plant response rating (bedstraw; [5]) | Bedstraw plant response rating (bedstraw; [6]) | Plant response rating, Bedstraw (bedstraw; [7]) | Bedstraw plant response rating (bedstraw; Rate 500 g/ha, Postemergence, scale 0 to 10, 0 no effect, 10 complete control) | B. signalgrass plant response rating (surinam grass; [1]) | B. signalgrass plant response rating (surinam grass; [2]) | B. signalgrass plant response rating (0 to 10 scale) (surinam grass; [3]) | B. signalgrass plant response rating (surinam grass; [4]) | B. signalgrass plant response rating (surinam grass; [5]) | B. signalgrass plant response rating (surinam grass; [6]) | Plant response rating, B. signalgrass (surinam grass; [7]) | B. signalgrass plant response rating (surinam grass; Rate 500 g/ha, Postemergence, scale of 0 to 10 where 0 is no effect and 10 is complete control) | Rice plant response rating (rice; [9]) | Plant response rating, Rice (rice; [10]) | Rice plant response rating (rice; [11]) | Corn plant response rating (corn; [1]) | Corn plant response rating (corn; [2]) | Corn plant response rating (0 to 10 scale) (corn; [3]) | Corn plant response rating (corn; [4]) | Corn plant response rating (corn; [5]) | Corn plant response rating (corn; [6]) | Plant response rating, Corn (corn; [7]) | Corn plant response rating (corn; [8]) | Rape plant response rating (rape; [1]) | Rape plant response rating (rape; [2]) | Rape plant response rating (0 to 10 scale) (rape; [3]) | Rape plant response rating (rape; [4]) | Rape plant response rating (rape; [5]) | Rape plant response rating (rape; [6]) | Plant response rating, Rape (rape; [7]) | Rape plant response rating (rape; [8]) | Redroot pigweed plant response rating (pigweed; [1]) | Redroot pigweed plant response rating (pigweed; [2]) | Redroot pigweed plant response rating (0 to 10 scale) (pigweed; [3]) | Redroot pigweed plant response rating (pigweed; [4]) | Redroot pigweed plant response rating (pigweed; [5]) | Redroot pigweed plant response rating (pigweed; [6]) | Plant response rating, Redroot pigweed (pigweed; [7]) | Redroot pigweed plant response rating (pigweed; [8]) | Wheat plant response rating (wheat; [1]) | Wheat plant response rating (wheat; [2]) | Wheat plant response rating (0 to 10 scale) (wheat; [3]) | Wheat plant response rating (wheat; [4]) | Wheat plant response rating (wheat; [5]) | Wheat plant response rating (wheat; [6]) | Plant response rating, Wheat (wheat; [7]) | Wheat plant response rating (wheat; [8])
